Results from ChEMBL document CHEMBL1201862, “PubChem BioAssay data set” (2004).
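48-hour exposure; five concentrations; linearly interpolated endpoints. Abbreviation: GI50, concentration required for 50% inhibition of growth.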 Calls of active or inactive are those of the source. No stated cut-off is given here; in the data, active = GI50 up to about 1.1 µM and inactive = higher.

Tests used:
Test in all cases: NCI tumour cell line growth inhibition, 48 h
CCRF-CEM = test system: CCRF-CEM
NCI-H226 = test system: NCI-H226
SNB-75 = test system: SNB-75
HOP-92 = test system: HOP-92
EKVX = test system: EKVX
SF-268 = test system: SF-268
SK-MEL-5 = test system: SK-MEL-5
PC-3 = test system: PC-3
SN12C = test system: SN12C
OVCAR-4 = test system: OVCAR-4
786-0 = test system: 786-0
SR = test system: SR
MCF7 = test system: MCF7
NCI/ADR-RES = test system: NCI/ADR-RES
OVCAR-5 = test system: OVCAR-5
HOP-62 = test system: HOP-62
Hs-578T = test system: Hs-578T
NCI-H522 = test system: NCI-H522
CAKI-1 = test system: CAKI-1
OVCAR-3 = test system: OVCAR-3
Malme-3M = test system: Malme-3M
MDA-N = test system: MDA-N
BT-549 = test system: BT-549
ACHN = test system: ACHN
HT-29 = test system: HT-29
RPMI-8226 = test system: RPMI-8226
SNB-19 = test system: SNB-19
SK-MEL-28 = test system: SK-MEL-28
SF-295 = test system: SF-295
DU-145 = test system: DU-145
MDA-MB-231 = test system: MDA-MB-231
UO-31 = test system: UO-31
MOLT-4 = test system: MOLT-4
IGROV-1 = test system: IGROV-1
HL-60 = test system: HL-60
HCT-116 = test system: HCT-116
T47D = test system: T47D
KM12 = test system: KM12
M14 = test system: M14
SK-MEL-2 = test system: SK-MEL-2
U-251 = test system: U-251
HCC 2998 = test system: HCC 2998
NCI-H23 = test system: NCI-H23
SF-539 = test system: SF-539
TK-10 = test system: TK-10
COLO 205 = test system: COLO 205
SK-OV-3 = test system: SK-OV-3
A549 = test system: A549
UACC-62 = test system: UACC-62
OVCAR-8 = test system: OVCAR-8
MDA-MB-435 = test system: MDA-MB-435
K562 = test system: K562
NCI-H460 = test system: NCI-H460
RXF 393 = test system: RXF 393
A498 = test system: A498
HCT-15 = test system: HCT-15
UACC-257 = test system: UACC-257
LOX IMVI = test system: LOX IMVI
SW-620 = test system: SW-620

COC(=O)c1c(OC(C)=O)ccc2c1c1cc3ccccc3c(OC(C)=O)c1n2C
GI50 (CCRF-CEM): 28.1 µM (inactive) | GI50 (NCI-H226): 37.2 µM (inactive) | GI50 (SNB-75): 4.67 µM (inactive) | GI50 (HOP-92): 10.3 µM (inactive) | GI50 (EKVX): 41.3 µM (inactive) | GI50 (SF-268): 27.7 µM (inactive) | GI50 (SK-MEL-5): 3.07 µM (inactive) | GI50 (PC-3): 30.1 µM (inactive) | GI50 (SN12C): 40.6 µM (inactive) | GI50 (OVCAR-4): 19.7 µM (inactive) | GI50 (786-0): 11 µM (inactive) | GI50 (SR): 3.69 µM (inactive) | GI50 (MCF7): 9.33 µM (inactive) | GI50 (NCI/ADR-RES): 34.8 µM (inactive) | GI50 (OVCAR-5): 53.5 µM (inactive) | GI50 (HOP-62): 50 µM (inactive) | GI50 (Hs-578T): 4.43 µM (inactive) | GI50 (NCI-H522): 4.97 µM (inactive) | GI50 (CAKI-1): 11.8 µM (inactive) | GI50 (OVCAR-3): 23.9 µM (inactive) | GI50 (Malme-3M): 14.4 µM (inactive) | GI50 (MDA-N): 33.8 µM (inactive) | GI50 (BT-549): 14.6 µM (inactive) | GI50 (ACHN): 8.09 µM (inactive) | GI50 (HT-29): 15.2 µM (inactive) | GI50 (RPMI-8226): 8.63 µM (inactive) | GI50 (SNB-19): 68.5 µM (inactive) | GI50 (SK-MEL-28): 84.5 µM (inactive) | GI50 (SF-295): 40.5 µM (inactive) | GI50 (DU-145): 9.86 µM (inactive) | GI50 (MDA-MB-231): 30 µM (inactive) | GI50 (UO-31): 17.1 µM (inactive) | GI50 (MOLT-4): 5.75 µM (inactive) | GI50 (IGROV-1): 2.73 µM (inactive) | GI50 (HL-60): 19.3 µM (inactive) | GI50 (HCT-116): 15.4 µM (inactive) | GI50 (T47D): 4.69 µM (inactive) | GI50 (KM12): 34.6 µM (inactive) | GI50 (M14): 29.4 µM (inactive) | GI50 (SK-MEL-2): 29.7 µM (inactive) | GI50 (U-251): 61 µM (inactive) | GI50 (HCC 2998): 33.6 µM (inactive) | GI50 (NCI-H23): 17.7 µM (inactive) | GI50 (SF-539): 17.5 µM (inactive) | GI50 (TK-10): 28.6 µM (inactive) | GI50 (COLO 205): 21.8 µM (inactive) | GI50 (SK-OV-3): 6.65 µM (inactive) | GI50 (A549): 19.9 µM (inactive) | GI50 (UACC-62): 30.8 µM (inactive) | GI50 (OVCAR-8): 14.2 µM (inactive) | GI50 (MDA-MB-435): 25.6 µM (inactive) | GI50 (K562): 21.4 µM (inactive) | GI50 (NCI-H460): 10.4 µM (inactive) | GI50 (RXF 393): 24.8 µM (inactive) | GI50 (A498): 13.7 µM (inactive) | GI50 (HCT-15): 22.7 µM

Cc1c(C)c(S(=O)(=O)N(CCCN)OCCCN)c(C)c2c1OC(C)(C)CC2
GI50 (CCRF-CEM): 10.2 µM (inactive) | GI50 (NCI-H226): 13.4 µM (inactive) | GI50 (SNB-75): 11.3 µM (inactive) | GI50 (HOP-92): 7.5 µM (inactive) | GI50 (EKVX): 16.7 µM (inactive) | GI50 (SF-268): 13.3 µM (inactive) | GI50 (SK-MEL-5): 15.6 µM (inactive) | GI50 (PC-3): 12 µM (inactive) | GI50 (SN12C): 15.1 µM (inactive) | GI50 (OVCAR-4): 8.17 µM (inactive) | GI50 (786-0): 15.9 µM (inactive) | GI50 (SR): 17.5 µM (inactive) | GI50 (MCF7): 15.4 µM (inactive) | GI50 (NCI/ADR-RES): 25.7 µM (inactive) | GI50 (OVCAR-5): 13 µM (inactive) | GI50 (HOP-62): 13.3 µM (inactive) | GI50 (Hs-578T): 14.8 µM (inactive) | GI50 (NCI-H522): 14 µM (inactive) | GI50 (CAKI-1): 16.5 µM (inactive) | GI50 (OVCAR-3): 15 µM (inactive) | GI50 (Malme-3M): 13.6 µM (inactive) | GI50 (MDA-N): 15.8 µM (inactive) | GI50 (BT-549): 17.5 µM (inactive) | GI50 (ACHN): 16.1 µM (inactive) | GI50 (HT-29): 15.1 µM (inactive) | GI50 (RPMI-8226): 17.6 µM (inactive) | GI50 (SNB-19): 11.8 µM (inactive) | GI50 (SK-MEL-28): 15.2 µM (inactive) | GI50 (SF-295): 16.3 µM (inactive) | GI50 (DU-145): 16 µM (inactive) | GI50 (MDA-MB-231): 4.63 µM (inactive) | GI50 (UO-31): 17.5 µM (inactive) | GI50 (MOLT-4): 4.61 µM (inactive) | GI50 (IGROV-1): 7.78 µM (inactive) | GI50 (HCT-116): 16.5 µM (inactive) | GI50 (T47D): 16.9 µM (inactive) | GI50 (KM12): 12.4 µM (inactive) | GI50 (M14): 14.3 µM (inactive) | GI50 (SK-MEL-2): 17.5 µM (inactive) | GI50 (U-251): 11.9 µM (inactive) | GI50 (HCC 2998): 4.14 µM (inactive) | GI50 (NCI-H23): 14.5 µM (inactive) | GI50 (TK-10): 14.7 µM (inactive) | GI50 (COLO 205): 17.5 µM (inactive) | GI50 (UACC-257): 13.7 µM (inactive) | GI50 (SK-OV-3): 15.4 µM (inactive) | GI50 (A549): 15.6 µM (inactive) | GI50 (UACC-62): 14.8 µM (inactive) | GI50 (OVCAR-8): 16.3 µM (inactive) | GI50 (MDA-MB-435): 15.8 µM (inactive) | GI50 (K562): 15.2 µM (inactive) | GI50 (NCI-H460): 15.8 µM (inactive) | GI50 (RXF 393): 9.04 µM (inactive) | GI50 (LOX IMVI): 13.3 µM (inactive) | GI50 (SW-620): 15.1 µM (inactive) | GI50 (A498): 12.9 µM (inactive) | GI50 (HCT-15): 15.8 µM

O=C(NCc1ccccc1)c1cc2ccccc2o/c1=N\c1ccccc1F
GI50 (CCRF-CEM): > 100 µM (inactive) | GI50 (NCI-H226): 31.6 µM (inactive) | GI50 (SNB-75): 20 µM (inactive) | GI50 (HOP-92): 20 µM (inactive) | GI50 (EKVX): 27.7 µM (inactive) | GI50 (SF-268): 30.8 µM (inactive) | GI50 (SK-MEL-5): 19.1 µM (inactive) | GI50 (PC-3): 33.5 µM (inactive) | GI50 (SN12C): 28.9 µM (inactive) | GI50 (OVCAR-4): 13.5 µM (inactive) | GI50 (786-0): 10.8 µM (inactive) | GI50 (SR): 32.7 µM (inactive) | GI50 (MCF7): 33.7 µM (inactive) | GI50 (NCI/ADR-RES): 46.7 µM (inactive) | GI50 (OVCAR-5): 43.4 µM (inactive) | GI50 (HOP-62): 15.6 µM (inactive) | GI50 (Hs-578T): 32.1 µM (inactive) | GI50 (NCI-H522): 22 µM (inactive) | GI50 (CAKI-1): 14 µM (inactive) | GI50 (OVCAR-3): 46 µM (inactive) | GI50 (Malme-3M): 25.2 µM (inactive) | GI50 (MDA-N): 34.8 µM (inactive) | GI50 (BT-549): > 100 µM (inactive) | GI50 (ACHN): 19.5 µM (inactive) | GI50 (HT-29): 45.8 µM (inactive) | GI50 (RPMI-8226): > 100 µM (inactive) | GI50 (SNB-19): 25.6 µM (inactive) | GI50 (SK-MEL-28): 66.2 µM (inactive) | GI50 (SF-295): 22 µM (inactive) | GI50 (DU-145): 29.7 µM (inactive) | GI50 (MDA-MB-231): 17.6 µM (inactive) | GI50 (UO-31): 8.39 µM (inactive) | GI50 (MOLT-4): > 100 µM (inactive) | GI50 (IGROV-1): 24 µM (inactive) | GI50 (HL-60): > 100 µM (inactive) | GI50 (HCT-116): 23.4 µM (inactive) | GI50 (T47D): 16.6 µM (inactive) | GI50 (KM12): 25.7 µM (inactive) | GI50 (M14): 34.4 µM (inactive) | GI50 (SK-MEL-2): 28.1 µM (inactive) | GI50 (U-251): 35.5 µM (inactive) | GI50 (HCC 2998): 23.1 µM (inactive) | GI50 (NCI-H23): 21.5 µM (inactive) | GI50 (TK-10): 13.6 µM (inactive) | GI50 (COLO 205): 26.4 µM (inactive) | GI50 (UACC-257): 34.4 µM (inactive) | GI50 (SK-OV-3): 16.5 µM (inactive) | GI50 (A549): 18.1 µM (inactive) | GI50 (UACC-62): 29.9 µM (inactive) | GI50 (OVCAR-8): 14.3 µM (inactive) | GI50 (MDA-MB-435): 26.3 µM (inactive) | GI50 (K562): > 100 µM (inactive) | GI50 (NCI-H460): 41.7 µM (inactive) | GI50 (RXF 393): 21.5 µM (inactive) | GI50 (LOX IMVI): 14.9 µM (inactive) | GI50 (SW-620): 26.1 µM (inactive) | GI50 (A498): 38.6 µM (inactive) | GI50 (HCT-15): 51.2 µM
